From ChEMBL document CHEMBL1153944, “Exploration of click reaction for the synthesis of modified nucleosides as chitin synthase inhibitors” (Bioorg Med Chem, 2009)
Values after ≈ are worked out from the molar mass of the structure shown.

Legend:
Candida albicans = experiment: Antifungal activity against Candida albicans by broth microdilution test; assay type: functional, organism-based
Cryptococcus neoformans = experiment: Antifungal activity against Cryptococcus neoformans by broth microdilution test; assay type: functional, organism-based
Fusarium oxysporum = experiment: Antifungal activity against Fusarium oxysporum by broth microdilution test; assay type: functional, organism-based
Benjaminiella poitrasii [1] = experiment: Inhibition of chitin synthase activity in Benjaminiella poitrasii at 4 ug/mL
Benjaminiella poitrasii [2] = experiment: Antifungal activity against Benjaminiella poitrasii assessed as inhibition of germ tube formation at 4 ug/mL after 6 hrs; assay type: functional
Benjaminiella poitrasii [3] = experiment: Antifungal activity against Benjaminiella poitrasii at 4 ug/mL by standard broth microdilution technique; assay type: functional

Structure (SMILES): CC1(C)O[C@@H]2[C@H](O1)[C@@H](Cn1cc(COC(=O)CCl)nn1)O[C@H]2n1ccc(=O)[nH]c1=O
- IC50 (Candida albicans): 32 µg/mL (≈ 72.4 µM)
- MIC90 (Candida albicans): 66 µg/mL (≈ 149 µM)
- IC50 (Cryptococcus neoformans): 125 µg/mL (≈ 283 µM)
- MIC90 (Cryptococcus neoformans): > 128 µg/mL
- IC50 (Fusarium oxysporum): 8 µg/mL (≈ 18.1 µM)
- MIC90 (Fusarium oxysporum): 16 µg/mL (≈ 36.2 µM)
- inhibition (Benjaminiella poitrasii [1]): 75.7%
- inhibition at 4 µg/mL (Benjaminiella poitrasii [2]): 60%
- inhibition at 4 µg/mL (Benjaminiella poitrasii [3]): 30.2%

Structure (SMILES): CC1(C)O[C@@H]2[C@H](O1)[C@@H](Cn1cc(COC(=O)C(=O)c3ccccc3)nn1)O[C@H]2n1ccc(=O)[nH]c1=O
- IC50 (Candida albicans): > 128 µg/mL
- MIC90 (Candida albicans): > 128 µg/mL
- IC50 (Cryptococcus neoformans): 16 µg/mL (≈ 32.2 µM)
- MIC90 (Cryptococcus neoformans): > 128 µg/mL
- IC50 (Fusarium oxysporum): 55 µg/mL (≈ 111 µM)
- MIC90 (Fusarium oxysporum): 106 µg/mL (≈ 213 µM)
- inhibition (Benjaminiella poitrasii [1]): 80%
- inhibition at 4 µg/mL (Benjaminiella poitrasii [2]): 72%
- inhibition at 4 µg/mL (Benjaminiella poitrasii [3]): 51.5%

Structure (SMILES): C[C@@H]1[C@H](O)[C@@H](C)/C=C/C=C/C=C/C=C/C=C/C=C/C=C/[C@H](O[C@@H]2O[C@H](C)[C@@H](O)[C@H](N)[C@@H]2O)C[C@@H]2O[C@](O)(C[C@@H](O)C[C@@H](O)[C@H](O)CC[C@@H](O)C[C@@H](O)CC(=O)O[C@H]1C)C[C@H](O)[C@H]2C(=O)O [AMPHOTERICIN B]
- MIC90 (Candida albicans): 2 µg/mL (≈ 2.16 µM)
- MIC90 (Cryptococcus neoformans): 16 µg/mL (≈ 17.3 µM)
- MIC90 (Fusarium oxysporum): 16 µg/mL (≈ 17.3 µM)

Structure (SMILES): OC(Cn1cncn1)(Cn1cncn1)c1ccc(F)cc1F [FLUCONAZOLE]
- IC50 (Candida albicans): 14 µg/mL (≈ 45.7 µM)
- MIC90 (Candida albicans): 32 µg/mL (≈ 104 µM)
- MIC90 (Cryptococcus neoformans): 32 µg/mL (≈ 104 µM)
- MIC90 (Fusarium oxysporum): 8 µg/mL (≈ 26.1 µM)

Structure (SMILES): CC1(C)O[C@@H]2[C@H](O1)[C@@H](Cn1cc(COC(=O)Cc3ccccc3)nn1)O[C@H]2n1ccc(=O)[nH]c1=O
- IC50 (Candida albicans): 18 µg/mL (≈ 37.2 µM)
- MIC90 (Candida albicans): 32 µg/mL (≈ 66.2 µM)
- IC50 (Cryptococcus neoformans): 18 µg/mL (≈ 37.2 µM)
- MIC90 (Cryptococcus neoformans): 31 µg/mL (≈ 64.1 µM)
- IC50 (Fusarium oxysporum): 16 µg/mL (≈ 33.1 µM)
- MIC90 (Fusarium oxysporum): 32 µg/mL (≈ 66.2 µM)
- inhibition (Benjaminiella poitrasii [1]): 71%
- inhibition at 4 µg/mL (Benjaminiella poitrasii [2]): 75%
- inhibition at 4 µg/mL (Benjaminiella poitrasii [3]): 31.9%

Structure (SMILES): Cc1ccccc1CC(=O)OCc1cn(C[C@H]2O[C@@H](n3ccc(=O)[nH]c3=O)[C@@H]3OC(C)(C)O[C@@H]32)nn1
- IC50 (Candida albicans): 18 µg/mL (≈ 36.2 µM)
- MIC90 (Candida albicans): 32 µg/mL (≈ 64.3 µM)
- IC50 (Cryptococcus neoformans): 32 µg/mL (≈ 64.3 µM)
- MIC90 (Cryptococcus neoformans): 64 µg/mL (≈ 129 µM)
- IC50 (Fusarium oxysporum): 64 µg/mL (≈ 129 µM)
- MIC90 (Fusarium oxysporum): > 128 µg/mL
- inhibition (Benjaminiella poitrasii [1]): 36.4%
- inhibition at 4 µg/mL (Benjaminiella poitrasii [2]): 67.2%
- inhibition at 4 µg/mL (Benjaminiella poitrasii [3]): 27.3%

Structure (SMILES): CC1(C)O[C@@H]2[C@H](O1)[C@@H](Cn1cc(COc3ccccc3)nn1)O[C@H]2n1ccc(=O)[nH]c1=O
- IC50 (Candida albicans): 68 µg/mL (≈ 154 µM)
- MIC90 (Candida albicans): > 128 µg/mL
- IC50 (Cryptococcus neoformans): 4 µg/mL (≈ 9.06 µM)
- MIC90 (Cryptococcus neoformans): 8 µg/mL (≈ 18.1 µM)
- IC50 (Fusarium oxysporum): 128 µg/mL (≈ 290 µM)
- MIC90 (Fusarium oxysporum): > 128 µg/mL
- inhibition (Benjaminiella poitrasii [1]): 77.2%
- inhibition at 4 µg/mL (Benjaminiella poitrasii [2]): 45.1%
- inhibition at 4 µg/mL (Benjaminiella poitrasii [3]): 21.5%

Structure (SMILES): C[C@@H]([C@H](N)C(=O)N[C@H](C(=O)O)[C@H]1O[C@@H](n2ccc(=O)[nH]c2=O)[C@H](O)[C@@H]1O)[C@H](O)c1ccc(O)cn1 [NIKKOMYCIN]
- IC50 (Candida albicans): 32 µg/mL (≈ 64.6 µM)
- MIC90 (Candida albicans): 64 µg/mL (≈ 129 µM)
- IC50 (Cryptococcus neoformans): 16 µg/mL (≈ 32.3 µM)
- MIC90 (Cryptococcus neoformans): 30 µg/mL (≈ 60.6 µM)
- IC50 (Fusarium oxysporum): 6 µg/mL (≈ 12.1 µM)
- MIC90 (Fusarium oxysporum): 8 µg/mL (≈ 16.1 µM)
- inhibition (Benjaminiella poitrasii [1]): 96.6%
- inhibition at 4 µg/mL (Benjaminiella poitrasii [2]): > 95%
- inhibition at 4 µg/mL (Benjaminiella poitrasii [3]): 45.5%

Structure (SMILES): CC1(C)O[C@@H]2[C@H](O1)[C@@H](Cn1cc(COc3cccc4ccccc34)nn1)O[C@H]2n1ccc(=O)[nH]c1=O
- IC50 (Candida albicans): 34 µg/mL (≈ 69.2 µM)
- MIC90 (Candida albicans): > 128 µg/mL
- IC50 (Cryptococcus neoformans): 32 µg/mL (≈ 65.1 µM)
- MIC90 (Cryptococcus neoformans): 64 µg/mL (≈ 130 µM)
- IC50 (Fusarium oxysporum): 32 µg/mL (≈ 65.1 µM)
- MIC90 (Fusarium oxysporum): 64 µg/mL (≈ 130 µM)
- inhibition (Benjaminiella poitrasii [1]): 76.9%
- inhibition at 4 µg/mL (Benjaminiella poitrasii [2]): 72.7%
- inhibition at 4 µg/mL (Benjaminiella poitrasii [3]): 32.4%

Structure (SMILES): COc1ccc(OCc2cn(C[C@H]3O[C@@H](n4ccc(=O)[nH]c4=O)[C@@H]4OC(C)(C)O[C@@H]43)nn2)cc1
- IC50 (Candida albicans): 16 µg/mL (≈ 33.9 µM)
- MIC90 (Candida albicans): 24 µg/mL (≈ 50.9 µM)
- IC50 (Cryptococcus neoformans): 35 µg/mL (≈ 74.2 µM)
- MIC90 (Cryptococcus neoformans): 49 µg/mL (≈ 104 µM)
- IC50 (Fusarium oxysporum): 70 µg/mL (≈ 148 µM)
- MIC90 (Fusarium oxysporum): 124 µg/mL (≈ 263 µM)
- inhibition (Benjaminiella poitrasii [1]): 68.5%
- inhibition at 4 µg/mL (Benjaminiella poitrasii [2]): 71.4%
- inhibition at 4 µg/mL (Benjaminiella poitrasii [3]): 29.3%

Structure (SMILES): CC1(C)O[C@@H]2[C@H](O1)[C@@H](Cn1cc(COc3ccc(F)cc3)nn1)O[C@H]2n1ccc(=O)[nH]c1=O
- IC50 (Candida albicans): 9 µg/mL (≈ 19.6 µM)
- MIC90 (Candida albicans): > 128 µg/mL
- IC50 (Cryptococcus neoformans): 64 µg/mL (≈ 139 µM)
- MIC90 (Cryptococcus neoformans): 128 µg/mL (≈ 279 µM)
- IC50 (Fusarium oxysporum): 128 µg/mL (≈ 279 µM)
- MIC90 (Fusarium oxysporum): > 128 µg/mL
- inhibition (Benjaminiella poitrasii [1]): 84.1%
- inhibition at 4 µg/mL (Benjaminiella poitrasii [2]): 64.7%
- inhibition at 4 µg/mL (Benjaminiella poitrasii [3]): 9.43%

Structure (SMILES): CC1(C)O[C@@H]2[C@H](O1)[C@@H](Cn1cc(COc3ccc(Cl)cc3)nn1)O[C@H]2n1ccc(=O)[nH]c1=O
- IC50 (Candida albicans): 18 µg/mL (≈ 37.8 µM)
- MIC90 (Candida albicans): 32 µg/mL (≈ 67.2 µM)
- IC50 (Cryptococcus neoformans): 30 µg/mL (≈ 63 µM)
- MIC90 (Cryptococcus neoformans): 57 µg/mL (≈ 120 µM)
- IC50 (Fusarium oxysporum): 16 µg/mL (≈ 33.6 µM)
- MIC90 (Fusarium oxysporum): 32 µg/mL (≈ 67.2 µM)
- inhibition (Benjaminiella poitrasii [1]): 95.1%
- inhibition at 4 µg/mL (Benjaminiella poitrasii [2]): 58.1%
- inhibition at 4 µg/mL (Benjaminiella poitrasii [3]): 34.6%

Structure (SMILES): CC1(C)O[C@@H]2[C@H](O1)[C@@H](Cn1cc(COC(=O)Cc3ccc(Cl)cc3Cl)nn1)O[C@H]2n1ccc(=O)[nH]c1=O
- IC50 (Candida albicans): 32 µg/mL (≈ 57.9 µM)
- MIC90 (Candida albicans): > 128 µg/mL
- IC50 (Cryptococcus neoformans): 32 µg/mL (≈ 57.9 µM)
- MIC90 (Cryptococcus neoformans): 64 µg/mL (≈ 116 µM)
- IC50 (Fusarium oxysporum): > 128 µg/mL
- MIC90 (Fusarium oxysporum): > 128 µg/mL
- inhibition (Benjaminiella poitrasii [1]): 67%
- inhibition at 4 µg/mL (Benjaminiella poitrasii [2]): 57.1%
- inhibition at 4 µg/mL (Benjaminiella poitrasii [3]): 38.6%

Structure (SMILES): Cc1cccc(OCc2cn(C[C@H]3O[C@@H](n4ccc(=O)[nH]c4=O)[C@@H]4OC(C)(C)O[C@@H]43)nn2)c1
- IC50 (Candida albicans): 34 µg/mL (≈ 74.6 µM)
- MIC90 (Candida albicans): 128 µg/mL (≈ 281 µM)
- IC50 (Cryptococcus neoformans): 8 µg/mL (≈ 17.6 µM)
- MIC90 (Cryptococcus neoformans): 64 µg/mL (≈ 141 µM)
- IC50 (Fusarium oxysporum): 32 µg/mL (≈ 70.3 µM)
- MIC90 (Fusarium oxysporum): 64 µg/mL (≈ 141 µM)
- inhibition (Benjaminiella poitrasii [1]): 82.1%
- inhibition at 4 µg/mL (Benjaminiella poitrasii [2]): 69.2%
- inhibition at 4 µg/mL (Benjaminiella poitrasii [3]): 34.4%

Structure (SMILES): CC1(C)O[C@@H]2[C@H](O1)[C@@H](Cn1cc(COC(=O)COc3ccccc3)nn1)O[C@H]2n1ccc(=O)[nH]c1=O
- IC50 (Candida albicans): 64 µg/mL (≈ 128 µM)
- MIC90 (Candida albicans): > 128 µg/mL
- IC50 (Cryptococcus neoformans): 128 µg/mL (≈ 256 µM)
- MIC90 (Cryptococcus neoformans): > 128 µg/mL
- IC50 (Fusarium oxysporum): 16 µg/mL (≈ 32 µM)
- MIC90 (Fusarium oxysporum): 33 µg/mL (≈ 66.1 µM)
- inhibition (Benjaminiella poitrasii [1]): 74%
- inhibition at 4 µg/mL (Benjaminiella poitrasii [2]): 52.5%
- inhibition at 4 µg/mL (Benjaminiella poitrasii [3]): 56.2%

Structure (SMILES): CC1(C)O[C@@H]2[C@H](O1)[C@@H](Cn1cc(COC(=O)Cc3ccc(O)cc3)nn1)O[C@H]2n1ccc(=O)[nH]c1=O
- IC50 (Candida albicans): > 128 µg/mL
- MIC90 (Candida albicans): > 128 µg/mL
- IC50 (Cryptococcus neoformans): 128 µg/mL (≈ 256 µM)
- MIC90 (Cryptococcus neoformans): > 128 µg/mL
- IC50 (Fusarium oxysporum): 35 µg/mL (≈ 70.1 µM)
- MIC90 (Fusarium oxysporum): 57 µg/mL (≈ 114 µM)
- inhibition (Benjaminiella poitrasii [1]): 73.4%
- inhibition at 4 µg/mL (Benjaminiella poitrasii [2]): 61.5%
- inhibition at 4 µg/mL (Benjaminiella poitrasii [3]): 28.2%

Structure (SMILES): CC1(C)O[C@@H]2[C@H](O1)[C@@H](Cn1cc(COc3ccc([N+](=O)[O-])cc3)nn1)O[C@H]2n1ccc(=O)[nH]c1=O
- IC50 (Candida albicans): > 128 µg/mL
- MIC90 (Candida albicans): > 128 µg/mL
- IC50 (Cryptococcus neoformans): 14 µg/mL (≈ 28.8 µM)
- MIC90 (Cryptococcus neoformans): 32 µg/mL (≈ 65.8 µM)
- IC50 (Fusarium oxysporum): 32 µg/mL (≈ 65.8 µM)
- MIC90 (Fusarium oxysporum): 64 µg/mL (≈ 132 µM)
- inhibition (Benjaminiella poitrasii [1]): 77.8%
- inhibition at 4 µg/mL (Benjaminiella poitrasii [2]): 78.2%
- inhibition at 4 µg/mL (Benjaminiella poitrasii [3]): 17.4%
